According to patent US11919901B2 (Syndax Pharmaceuticals, Inc., priority 2021, dated 2024):

Experiments:
Menin-MLL = Menin-MLL (Homo sapiens (Human), UniProt O00255); test: Determination of binding constants (Ki) to Menin-MLL (HTRF); details: HTRF; 0.25 nM H-FL-Menin, 3.2 nM FITC-MLL-4-43, 24 hr incubation; read-out: Menin-MLL Ki HTRF Assay: Ki
hERG = hERG (Homo sapiens (Human), UniProt Q12809); test: Patch clamp assay (hERG tail currents, whole-cell); format: cell-based; details: hERG transfected HEK 293 cells; for hERG % Remaining 30 μM: 30 μM compound
Sequence of hERG (Q12809 whole entry): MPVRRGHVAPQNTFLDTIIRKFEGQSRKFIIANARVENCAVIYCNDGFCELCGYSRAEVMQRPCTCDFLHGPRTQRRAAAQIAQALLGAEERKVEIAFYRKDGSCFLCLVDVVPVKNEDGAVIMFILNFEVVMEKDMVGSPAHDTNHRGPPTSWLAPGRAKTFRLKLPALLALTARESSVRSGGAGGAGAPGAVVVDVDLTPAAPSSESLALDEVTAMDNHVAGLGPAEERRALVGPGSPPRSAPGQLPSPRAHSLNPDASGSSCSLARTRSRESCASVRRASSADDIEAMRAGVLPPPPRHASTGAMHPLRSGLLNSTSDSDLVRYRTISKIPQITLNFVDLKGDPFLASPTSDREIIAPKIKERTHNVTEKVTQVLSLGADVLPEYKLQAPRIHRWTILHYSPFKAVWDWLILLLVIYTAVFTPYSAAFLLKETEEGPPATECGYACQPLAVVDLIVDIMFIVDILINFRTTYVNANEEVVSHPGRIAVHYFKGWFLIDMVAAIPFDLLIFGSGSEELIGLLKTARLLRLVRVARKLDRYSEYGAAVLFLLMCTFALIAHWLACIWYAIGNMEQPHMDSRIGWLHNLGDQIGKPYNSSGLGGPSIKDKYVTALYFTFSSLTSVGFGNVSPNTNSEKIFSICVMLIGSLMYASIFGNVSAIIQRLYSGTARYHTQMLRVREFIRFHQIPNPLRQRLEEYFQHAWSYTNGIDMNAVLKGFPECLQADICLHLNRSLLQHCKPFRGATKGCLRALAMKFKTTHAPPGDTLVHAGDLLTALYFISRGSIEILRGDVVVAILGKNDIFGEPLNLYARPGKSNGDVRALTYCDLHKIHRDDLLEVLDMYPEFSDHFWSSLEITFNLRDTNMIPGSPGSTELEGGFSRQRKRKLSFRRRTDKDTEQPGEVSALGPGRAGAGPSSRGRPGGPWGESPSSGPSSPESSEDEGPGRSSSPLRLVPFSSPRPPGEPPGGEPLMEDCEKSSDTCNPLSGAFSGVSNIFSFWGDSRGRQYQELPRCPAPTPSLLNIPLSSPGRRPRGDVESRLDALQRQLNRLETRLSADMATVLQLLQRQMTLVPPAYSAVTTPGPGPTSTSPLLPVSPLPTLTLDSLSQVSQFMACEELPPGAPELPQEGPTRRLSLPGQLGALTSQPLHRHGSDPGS

Sequence of Menin-MLL (O00255 whole entry): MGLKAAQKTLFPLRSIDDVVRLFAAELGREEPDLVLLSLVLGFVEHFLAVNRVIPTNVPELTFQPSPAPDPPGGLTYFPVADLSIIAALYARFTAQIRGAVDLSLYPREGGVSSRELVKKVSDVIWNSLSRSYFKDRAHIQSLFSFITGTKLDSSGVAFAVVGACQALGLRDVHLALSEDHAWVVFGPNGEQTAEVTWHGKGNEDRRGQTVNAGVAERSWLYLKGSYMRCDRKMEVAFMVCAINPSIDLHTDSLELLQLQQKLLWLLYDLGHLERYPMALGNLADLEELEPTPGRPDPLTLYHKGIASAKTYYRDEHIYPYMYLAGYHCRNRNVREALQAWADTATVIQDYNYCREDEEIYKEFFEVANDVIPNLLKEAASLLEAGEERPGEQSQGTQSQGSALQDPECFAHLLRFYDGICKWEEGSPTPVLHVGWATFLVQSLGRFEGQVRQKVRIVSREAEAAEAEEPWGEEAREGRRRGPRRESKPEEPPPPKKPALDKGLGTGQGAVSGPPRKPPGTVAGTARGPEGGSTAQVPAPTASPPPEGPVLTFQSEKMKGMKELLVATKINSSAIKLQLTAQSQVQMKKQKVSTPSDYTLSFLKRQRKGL

Compound	Ki (Menin-MLL) [nM]	hERG % Remaining 30 μM (hERG)	hERG % Remaining 100 μM (hERG; 100 μM compound)	IC50 (hERG) [nM]	hERG % Remaining 10 μM (hERG; 10 μM compound)
CC(C)N(C)C(=O)c1cc(F)ccc1Oc1cncnc1N1CC2(CCN(C[C@@H]3CC[C@@H](NS(=O)(=O)N4CCC4)CO3)CC2)C1 [Compound 138, 2-((4-(7-(((2S,5R)-5-(Azetidine-1-sulfonamido)tetrahydro-2H-pyran-2-yl)methyl)-2,7-diazaspiro[3.5]nonan-2-yl)pyrimidin-5-yl)oxy)-5-fluoro-N-isopropyl-N-methylbenzamide]	< 1	+++ (“+++” means ≥66%)			
CCNS(=O)(=O)N[C@@H]1CC[C@@H](CN2CCC3(CC2)CN(c2ncncc2Oc2ccc(F)cc2C(=O)N(CC)C(C)C)C3)OC1 [Compound 141, N-Ethyl-2-((4-(7-(((2S,5R)-5-((N-ethylsulfamoyl)amino)tetrahydro-2H-pyran-2-yl)methyl)-2,7-diazaspiro[3.5]nonan-2-yl)pyrimidin-5-yl)oxy)-5-fluoro-N-isopropylbenzamide]	< 1	+++ (“+++” means ≥66%)			
CCN(C(=O)c1cc(F)ccc1Oc1cncnc1N1CC2(CCN(C[C@@H]3CC[C@@H](NS(=O)(=O)NC4CC4)CO3)CC2)C1)C(C)C [Compound 142, 2-((4-(7-(((2S,5R)-5-((N-Cyclopropylsulfamoyl)amino)tetrahydro-2H-pyran-2-yl)methyl)-2,7-diazaspiro[3.5]nonan-2-yl)pyrimidin-5-yl)oxy)-N-ethyl-5-fluoro-N-isopropylbenzamide]	< 1	++ (“++” means ≥33% and <66%)			
CNS(=O)(=O)N[C@@H]1CC[C@@H](CN2CCC3(CC2)CN(c2ncncc2Oc2ccc(F)cc2C(=O)N(C(C)C)C(C)C)C3)OC1 [Compound 143, 5-Fluoro-N,N-diisopropyl-2-((4-(7-(((2S,5R)-5-((N-methylsulfamoyl)amino)tetrahydro-2H-pyran-2-yl)methyl)-2,7-diazaspiro[3.5]nonan-2-yl)pyrimidin-5-yl)oxy)benzamide]	< 1	+++ (“+++” means ≥66%)	+++ (“+++” means ≥66%)	≥ 50000	
CCNS(=O)(=O)N[C@@H]1CC[C@@H](CN2CCC3(CC2)CN(c2ncncc2Oc2ccc(F)cc2C(=O)N(C(C)C)C(C)C)C3)OC1 [Compound 144, 2-((4-(7-(((2S,5R)-5-((N-Ethylsulfamoyl)amino)tetrahydro-2H-pyran-2-yl)methyl)-2,7-diazaspiro[3.5]nonan-2-yl)pyrimidin-5-yl)oxy)-5-fluoro-N,N-diisopropylbenzamide]	< 1	+++ (“+++” means ≥66%)			
CCNS(=O)(=O)N[C@@H]1CC[C@@H](CN2CCC3(CC2)CN(c2ncncc2Oc2ccc(F)cc2C(=O)N(C(C)C)C2CC2)C3)OC1 [Compound 145, N-Cyclopropyl-2-((4-(7-(((2S,5R)-5-((N-ethylsulfamoyl)amino)tetrahydro-2H-pyran-2-yl)methyl)-2,7-diazaspiro[3.5]nonan-2-yl)pyrimidin-5-yl)oxy)-5-fluoro-N-isopropylbenzamide]	< 1	+++ (“+++” means ≥66%)			
CCNS(=O)(=O)N[C@@H]1CC[C@@H](CN2CCC3(CC2)CN(c2ncncc2Oc2ccc(F)cc2C(=O)N(CC(F)F)C(C)C)C3)OC1 [Compound 147, N-(2,2-Difluoroethyl)-2-((4-(7-(((2S,5R)-5-((N-ethylsulfamoyl)amino)tetrahydro-2H-pyran-2-yl)methyl)-2,7-diazaspiro[3.5]nonan-2-yl)pyrimidin-5-yl)oxy)-5-fluoro-N-isopropylbenzamide]	< 1	+++ (“+++” means ≥66%)		≥ 50000	+++ (“+++” means ≥66%)
CC(C)N(CC(F)F)C(=O)c1cc(F)ccc1Oc1cncnc1N1CC2(CCN(C[C@@H]3CC[C@@H](NS(=O)(=O)NCC4CC4)CO3)CC2)C1 [Compound 148, 2-((4-(7-(((2S,5R)-5-((N-(Cyclopropylmethyl)sulfamoyl)amino)tetrahydro-2H-pyran-2-yl)methyl)-2,7-diazaspiro[3.5]nonan-2-yl)pyrimidin-5-yl)oxy)-N-(2,2-difluoroethyl)-5-fluoro-N-isopropylbenzamide]	< 1	+++ (“+++” means ≥66%)			
